From ChEMBL document CHEMBL4507268 (2021)

Key:
Details in all cases: Compound concentration 1000.0 nM
[1] = molecular target: Cyclin-dependent kinase 15 (Homo sapiens) (UniProt Q96Q40)
[2] = molecular target: T1, Mitogen-activated protein kinase kinase kinase 2 (Homo sapiens) (UniProt Q9Y2U5)
T1 sequence (whole entry): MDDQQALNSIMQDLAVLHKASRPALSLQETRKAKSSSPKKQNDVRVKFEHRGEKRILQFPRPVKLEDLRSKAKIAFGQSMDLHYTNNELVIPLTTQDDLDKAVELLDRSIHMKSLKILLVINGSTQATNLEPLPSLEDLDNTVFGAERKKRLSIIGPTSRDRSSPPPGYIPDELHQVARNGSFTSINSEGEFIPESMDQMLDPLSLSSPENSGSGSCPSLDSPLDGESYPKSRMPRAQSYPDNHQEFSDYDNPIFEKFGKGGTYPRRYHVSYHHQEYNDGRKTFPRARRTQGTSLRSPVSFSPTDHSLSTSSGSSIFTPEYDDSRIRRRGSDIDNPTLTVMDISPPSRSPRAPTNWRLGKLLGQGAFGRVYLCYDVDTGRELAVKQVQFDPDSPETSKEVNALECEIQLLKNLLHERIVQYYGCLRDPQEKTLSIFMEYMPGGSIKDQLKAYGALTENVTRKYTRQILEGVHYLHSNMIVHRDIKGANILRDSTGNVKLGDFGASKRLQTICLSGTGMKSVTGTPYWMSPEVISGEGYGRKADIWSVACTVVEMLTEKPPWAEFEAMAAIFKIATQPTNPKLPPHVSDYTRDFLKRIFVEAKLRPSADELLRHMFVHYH

[3] = molecular target: Mitogen-activated protein kinase kinase kinase 15 (Homo sapiens) (UniProt Q6ZN16)
[4] = molecular target: T2, Ephrin type-A receptor 1 (Homo sapiens) (UniProt P21709)
T2 sequence (whole entry): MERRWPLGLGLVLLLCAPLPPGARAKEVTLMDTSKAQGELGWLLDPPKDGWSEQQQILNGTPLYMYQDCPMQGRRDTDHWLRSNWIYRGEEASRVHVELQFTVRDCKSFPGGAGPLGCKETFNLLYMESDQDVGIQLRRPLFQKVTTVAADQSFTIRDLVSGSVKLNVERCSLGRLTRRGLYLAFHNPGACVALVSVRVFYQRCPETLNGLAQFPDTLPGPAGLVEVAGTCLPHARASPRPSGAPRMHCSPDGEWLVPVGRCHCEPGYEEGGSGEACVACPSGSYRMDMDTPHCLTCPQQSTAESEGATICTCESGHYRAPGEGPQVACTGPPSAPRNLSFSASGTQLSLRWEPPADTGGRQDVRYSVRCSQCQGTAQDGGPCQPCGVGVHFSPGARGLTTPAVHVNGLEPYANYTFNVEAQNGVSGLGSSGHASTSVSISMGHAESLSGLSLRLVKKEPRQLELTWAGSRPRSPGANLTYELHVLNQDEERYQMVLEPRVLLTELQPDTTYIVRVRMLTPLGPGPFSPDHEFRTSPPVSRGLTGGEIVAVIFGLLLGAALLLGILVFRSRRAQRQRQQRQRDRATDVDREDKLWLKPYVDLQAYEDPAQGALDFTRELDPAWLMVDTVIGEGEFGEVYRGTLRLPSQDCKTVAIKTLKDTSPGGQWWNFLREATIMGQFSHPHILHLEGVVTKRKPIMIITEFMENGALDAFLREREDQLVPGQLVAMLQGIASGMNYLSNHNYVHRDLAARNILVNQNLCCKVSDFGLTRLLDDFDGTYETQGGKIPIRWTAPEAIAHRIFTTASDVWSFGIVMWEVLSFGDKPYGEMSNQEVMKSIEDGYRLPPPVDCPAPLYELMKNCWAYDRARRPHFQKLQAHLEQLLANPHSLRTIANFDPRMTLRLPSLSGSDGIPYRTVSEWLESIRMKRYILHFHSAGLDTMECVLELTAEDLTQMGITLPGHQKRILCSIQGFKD

[5] = molecular target: Homeodomain-interacting protein kinase 2 (Homo sapiens) (UniProt Q9H2X6)
[6] = molecular target: T3, Tyrosine-protein kinase receptor TYRO3 (Homo sapiens) (UniProt Q06418)
T3 sequence (whole entry): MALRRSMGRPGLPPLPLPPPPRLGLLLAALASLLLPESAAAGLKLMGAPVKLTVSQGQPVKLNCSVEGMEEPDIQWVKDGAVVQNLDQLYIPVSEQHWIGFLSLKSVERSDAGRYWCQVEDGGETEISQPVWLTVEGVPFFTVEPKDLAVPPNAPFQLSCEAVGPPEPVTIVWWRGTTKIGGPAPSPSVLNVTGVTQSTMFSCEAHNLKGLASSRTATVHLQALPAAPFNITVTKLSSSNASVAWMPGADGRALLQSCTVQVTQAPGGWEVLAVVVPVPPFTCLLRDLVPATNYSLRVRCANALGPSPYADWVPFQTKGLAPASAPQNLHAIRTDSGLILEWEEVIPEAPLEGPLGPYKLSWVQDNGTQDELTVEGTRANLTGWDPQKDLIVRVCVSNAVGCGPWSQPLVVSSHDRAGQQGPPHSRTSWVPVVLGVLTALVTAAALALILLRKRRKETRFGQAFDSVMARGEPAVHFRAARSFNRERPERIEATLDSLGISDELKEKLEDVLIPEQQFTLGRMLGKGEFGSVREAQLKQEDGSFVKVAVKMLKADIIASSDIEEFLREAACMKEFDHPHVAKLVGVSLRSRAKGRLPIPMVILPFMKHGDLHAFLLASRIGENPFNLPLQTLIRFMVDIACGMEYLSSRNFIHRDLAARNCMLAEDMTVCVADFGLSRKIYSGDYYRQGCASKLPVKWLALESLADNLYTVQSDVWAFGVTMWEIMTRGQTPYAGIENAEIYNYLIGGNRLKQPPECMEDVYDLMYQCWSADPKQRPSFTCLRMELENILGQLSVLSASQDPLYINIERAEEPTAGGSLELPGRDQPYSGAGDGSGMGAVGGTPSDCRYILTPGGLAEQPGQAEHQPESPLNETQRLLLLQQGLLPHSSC

Measured: residual activity

Sequence of Homeodomain-interacting protein kinase 2 (Homo sapiens) (Q9H2X6 whole entry, looked up): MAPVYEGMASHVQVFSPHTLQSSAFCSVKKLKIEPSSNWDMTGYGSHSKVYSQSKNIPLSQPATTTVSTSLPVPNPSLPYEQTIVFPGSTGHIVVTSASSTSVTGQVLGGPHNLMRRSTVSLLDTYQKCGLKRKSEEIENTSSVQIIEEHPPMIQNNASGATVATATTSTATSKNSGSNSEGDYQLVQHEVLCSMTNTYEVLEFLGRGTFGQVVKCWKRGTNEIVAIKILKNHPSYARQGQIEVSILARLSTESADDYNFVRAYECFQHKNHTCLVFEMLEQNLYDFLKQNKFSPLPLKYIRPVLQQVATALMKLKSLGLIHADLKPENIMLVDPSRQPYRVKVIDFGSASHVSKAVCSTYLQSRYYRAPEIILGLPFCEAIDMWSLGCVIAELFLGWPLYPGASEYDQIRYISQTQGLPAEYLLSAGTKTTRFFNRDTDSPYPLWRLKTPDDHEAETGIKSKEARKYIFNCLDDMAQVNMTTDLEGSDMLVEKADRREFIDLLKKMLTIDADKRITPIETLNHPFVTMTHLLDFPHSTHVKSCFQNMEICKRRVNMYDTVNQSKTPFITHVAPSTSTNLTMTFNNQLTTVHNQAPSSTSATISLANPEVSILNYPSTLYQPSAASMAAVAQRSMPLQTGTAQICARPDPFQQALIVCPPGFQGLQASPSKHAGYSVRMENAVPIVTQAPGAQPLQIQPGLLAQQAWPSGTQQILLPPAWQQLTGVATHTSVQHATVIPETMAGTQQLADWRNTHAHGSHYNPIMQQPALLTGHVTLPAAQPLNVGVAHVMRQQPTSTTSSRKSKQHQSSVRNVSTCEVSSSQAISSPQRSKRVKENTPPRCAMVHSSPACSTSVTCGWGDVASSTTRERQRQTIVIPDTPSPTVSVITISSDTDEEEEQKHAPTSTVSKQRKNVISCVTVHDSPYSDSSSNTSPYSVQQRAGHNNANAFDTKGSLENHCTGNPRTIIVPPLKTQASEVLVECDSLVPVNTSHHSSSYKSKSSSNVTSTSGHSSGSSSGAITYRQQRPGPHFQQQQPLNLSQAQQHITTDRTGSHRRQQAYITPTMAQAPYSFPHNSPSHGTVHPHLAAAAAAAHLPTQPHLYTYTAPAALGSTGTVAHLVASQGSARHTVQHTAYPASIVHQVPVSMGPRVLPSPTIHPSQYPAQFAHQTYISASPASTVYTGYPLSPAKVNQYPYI
Sequence of Mitogen-activated protein kinase kinase kinase 15 (Homo sapiens) (Q6ZN16 whole entry): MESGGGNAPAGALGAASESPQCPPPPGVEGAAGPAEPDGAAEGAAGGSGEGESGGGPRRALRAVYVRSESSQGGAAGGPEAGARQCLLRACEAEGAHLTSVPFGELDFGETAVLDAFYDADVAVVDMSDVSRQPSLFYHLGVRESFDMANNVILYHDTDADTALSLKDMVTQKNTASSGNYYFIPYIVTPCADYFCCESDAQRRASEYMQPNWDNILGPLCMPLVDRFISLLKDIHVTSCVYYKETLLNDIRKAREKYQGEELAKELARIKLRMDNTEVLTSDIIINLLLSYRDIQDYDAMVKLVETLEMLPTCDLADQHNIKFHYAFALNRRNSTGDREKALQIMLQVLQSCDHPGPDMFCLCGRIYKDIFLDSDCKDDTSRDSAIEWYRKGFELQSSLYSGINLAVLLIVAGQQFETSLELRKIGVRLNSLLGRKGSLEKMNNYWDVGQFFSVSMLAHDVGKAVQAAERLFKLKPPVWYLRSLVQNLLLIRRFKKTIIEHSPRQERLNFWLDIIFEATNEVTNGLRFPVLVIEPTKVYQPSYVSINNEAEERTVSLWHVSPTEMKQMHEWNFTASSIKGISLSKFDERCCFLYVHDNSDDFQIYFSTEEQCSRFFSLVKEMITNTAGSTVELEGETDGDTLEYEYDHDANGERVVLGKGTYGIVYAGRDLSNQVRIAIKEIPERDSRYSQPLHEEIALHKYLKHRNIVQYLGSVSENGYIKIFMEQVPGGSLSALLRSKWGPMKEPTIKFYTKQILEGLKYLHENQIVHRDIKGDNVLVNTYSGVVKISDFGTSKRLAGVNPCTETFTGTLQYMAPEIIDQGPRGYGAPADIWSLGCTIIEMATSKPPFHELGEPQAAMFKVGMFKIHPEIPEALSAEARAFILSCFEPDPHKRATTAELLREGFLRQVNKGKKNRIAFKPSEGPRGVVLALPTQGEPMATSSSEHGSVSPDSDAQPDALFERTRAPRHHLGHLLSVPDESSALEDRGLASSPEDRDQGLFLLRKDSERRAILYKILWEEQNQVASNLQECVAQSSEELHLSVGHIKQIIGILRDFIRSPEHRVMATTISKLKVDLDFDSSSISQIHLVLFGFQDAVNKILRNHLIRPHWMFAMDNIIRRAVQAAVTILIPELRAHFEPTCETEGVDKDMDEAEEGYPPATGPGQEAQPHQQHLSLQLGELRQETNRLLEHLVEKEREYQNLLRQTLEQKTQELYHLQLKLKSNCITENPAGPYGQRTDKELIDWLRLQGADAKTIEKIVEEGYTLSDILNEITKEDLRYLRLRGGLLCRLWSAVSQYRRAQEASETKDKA
Sequence of Cyclin-dependent kinase 15 (Homo sapiens) (Q96Q40 whole entry): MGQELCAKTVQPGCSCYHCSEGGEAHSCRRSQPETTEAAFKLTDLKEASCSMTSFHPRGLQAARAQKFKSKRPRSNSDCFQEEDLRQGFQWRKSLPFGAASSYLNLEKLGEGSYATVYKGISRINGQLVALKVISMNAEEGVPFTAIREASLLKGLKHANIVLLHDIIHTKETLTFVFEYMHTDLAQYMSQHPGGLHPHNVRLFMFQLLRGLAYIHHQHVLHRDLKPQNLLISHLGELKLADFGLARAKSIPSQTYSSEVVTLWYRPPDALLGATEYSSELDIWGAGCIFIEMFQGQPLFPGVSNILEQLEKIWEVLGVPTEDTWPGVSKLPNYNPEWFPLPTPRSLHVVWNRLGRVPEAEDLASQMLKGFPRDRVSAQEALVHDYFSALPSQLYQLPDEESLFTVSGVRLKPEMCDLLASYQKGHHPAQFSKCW

Cc1nc(C2CCN(C(=O)c3ccc(OC(F)(F)F)cc3N)CC2)c2ncc(N3CCN(C)CC3)cc2n1 [BAY-693]
inactive: [1] 100% | [2] 100% | [3] 92% | [4] 100% | [5] 93% | [6] 100%

CN1CCN(c2cnc3c(C4CCN(C(=O)c5ccc(OC(F)(F)F)cc5N)CC4)ncnc3c2)CC1 [BAY-885]
inactive: [1] 100% | [2] 100% | [3] 95% | [4] 95% | [5] 100% | [6] 100%
